Reference: patent US20220106304A1, “Transcription Factor BRN2 Inhibitory Compounds as Therapeutics and Methods for Their Use” (The University of British Columbia, priority 2018, published 2022)

Experiments:
[1] = Liver microsome metabolic stability, HLM; type: in vitro ADME; conditions: HLM (first of two values), 1 μM compound, 0.25 mg/mL protein; for Met Stab % (60 mins HLM/MLM): percent remaining at 60 min, 1 mM NADPH; for half-life at 1 µM: human, liver microsomes, pH 7.4, read-out: T1/2 in (mins HLM/MLM)
Procedure: (§1) Potassium phosphate buffer (Kphos) was prepared by adding 0.647 g potassium phosphate monobasic (KH2PO4) and 3.527 g potassium phosphate dibasic ([…]) to 400 mL of Milli-Q water. pH of the buffer was adjusted to 7.4 and volume was made up to 500 mL.
(§2) Microsomes (20 mg/mL) were diluted in KH2PO4 buffer to prepare a concentration of 0.357 mg/mL.
(§3) Stock solutions of BRN2 inhibitors were prepared in DMSO at a concentration of 1 mM
(§4) A stock solution of 3.33 mM NADPH (3.33×) was prepared by dissolving appropriate amount of NADPH in KH2PO4 buffer.
(§5) Total Incubation volume: 100 μL
(§6) Compound concentration: 1 μM
(§7) Protein Concentration: 0.25 mg/mL
(§8) An 1120 μL aliquot of Kphos buffer (50 mM, pH 7.4) containing liver microsomes (0.357 mg/mL) were added to individual 2 mL tubes (final concentration 0.25 mg/mL). Test compounds (1 mM) and positive controls were directly spiked into respective tubes to prepare a concentration of 1.428 μM (final concentration 1 μM). From the above mix, 70 μL was added to individual wells of 96 well reaction plates and pre-incubated in a 37° C. water bath for 5 min. All the reactions were initiated by adding 30 μL of 3.33 mM NADPH (final concentration 1 mM). Reactions without NADPH and buffer controls (minus NADPH) at 0 min and 60 min were also incubated to rule out non-NADPH metabolism or chemical instability in the incubation buffer. All reactions were terminated using 100 μL of ice-cold acetonitrile containing internal standard at 0, 5, 15, 30 and 60 min. The plates were centrifuged at 4000 RPM for 15 min and 100 μL aliquots were submitted for analysis by LC-MS/MS.
(§9) Samples were monitored for parent compounds disappearance in MRM mode using LC-MS/MS.
(§10) The percent remaining of test compounds and positive control in each sample was determined by considering peak area ratio in the 0 minute sample as 100%. The Half-life of compounds in microsomes is calculated by formula:
(§11) Half-life (t½) (min)=0.693/k, where k is gradient of line determined from plot of peak area ratio (compound peak area/internal standard peak area) against time.
(§12) In vitro intrinsic clearance (CL'int) (units in mL/min/kg) was calculated using the formula.
(§13) [formula] • For liver microsomes, scaling factor used was 45 mg microsomal protein per gm liver. • Indicates liver weight (gm) which varies species wise. For mice the liver weights are 90 gm.
(§14) Where data is not available “na” is inserted.

[2] = Liver microsome metabolic stability, MLM; type: in vitro ADME; conditions: MLM (single value or second of two), 1 μM compound, 0.25 mg/mL protein; for Met Stab % (60 mins HLM/MLM): percent remaining at 60 min, 1 mM NADPH; for half-life at 1 µM: mouse, liver microsomes, pH 7.4, read-out: T1/2 in (mins HLM/MLM)
Procedure: as §1, §2, §3, §4, §5, §6, §7, §8, §9, §10, §11, §12, §13, §14

[3] = target: T1, BRN2 (Homo sapiens, UniProt P20265); experiment: cell-based; conditions: negative = activation; for inhibition at 10 µM: read-out: % BRN2 Inhibition (10 μM), 10 μM compound, 24 hours, 42D^ENZR cells stably expressing BRN2-luciferase reporter; for inhibition at 30 µM: read-out: % BRN2 Inhibition (30 μM), 30 μM compound, 24 hours, 42D^ENZR cells stably expressing BRN2-luciferase reporter
T1 sequence (P20265 1-443): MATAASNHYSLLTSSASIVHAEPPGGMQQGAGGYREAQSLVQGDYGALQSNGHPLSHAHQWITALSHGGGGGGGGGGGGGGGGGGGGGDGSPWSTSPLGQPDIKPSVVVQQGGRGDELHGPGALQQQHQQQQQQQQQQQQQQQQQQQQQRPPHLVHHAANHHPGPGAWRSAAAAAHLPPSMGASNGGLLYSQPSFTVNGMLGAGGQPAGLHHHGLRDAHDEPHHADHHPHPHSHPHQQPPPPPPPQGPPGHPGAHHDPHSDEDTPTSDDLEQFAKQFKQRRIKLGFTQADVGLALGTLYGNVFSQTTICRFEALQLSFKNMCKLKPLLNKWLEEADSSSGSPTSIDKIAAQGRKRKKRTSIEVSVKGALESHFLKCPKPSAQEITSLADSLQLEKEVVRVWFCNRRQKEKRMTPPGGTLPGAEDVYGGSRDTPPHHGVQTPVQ
Source text: Decreased expression of luciferase protein is validated via western blot to confirm downregulation and avoid false positive molecules that inhibit luciferase protein activity and not BRN2-drive luciferase expression. Molecules are prioritized by their inhibition potency to measure direct interaction with BRN2 in Step 2.
In TABLES 1 and 2, when a single value is mentioned in columns Met Stab % and T½, it refers to compound's stability in MLM and when two values are given they represent HLM/MLM. There is a distinction in TABLES 1 and 2 difference between “Active” and “Specific” or “Specificity”. Compounds are first tested to quantify inhibition of BRN2 transcriptional activity in a luciferase assay to determine “Activity” at […] and 30 μM concentrations. […] Where data is not available “na” is inserted. Where data has yet to be calculated the notation “nc” is used.

Compound | Met Stab % (60 mins HLM/MLM) [1] | half-life at 1 µM [1] [min] | Met Stab % (60 mins HLM/MLM) [2] | half-life at 1 µM [2] [min] | inhibition at 10 µM [3] [%] | inhibition at 30 µM [3] [%]
Cn1c(-c2ccc(-c3ccccc3)o2)nc2ccc(S(N)(=O)=O)cc21 [VPC-18-47, 1-Methyl-2-(5-phenylfuran-2-yl)-1H-benzo[d]imidazole-6-sulfonamide] | 54% | > 60 | 53% | > 60 | 39.8 | 82.1
Cn1c(-c2csc(-c3ccccc3F)n2)nc2ccc(F)cc21 [VPC-18-45, 4-(6-Fluoro-1-methyl-1H-benzo[d]imidazol-2-yl)-2-(2-fluorophenyl)thiazole] | 35% | 42 | 22% | 32 | 7.53 | 47.2
Cn1c(-c2ccc(-c3ccccc3F)o2)nc2c(F)cccc21 [VPC-18-31, 4-Fluoro-2-(5-(2-fluorophenyl)furan-2-yl)-1-methyl-1H-benzo[d]imidazole] | 17% | 2 | 0% | – | 67.9 | 77.8
Cn1c(-c2ccc(-c3ccc(F)cc3F)o2)nc2ccccc21 [VPC-18-41, 2-(5-(2,4-Difluorophenyl)furan-2-yl)-1-methyl-1H-benzo[d]imidazole] | 0/0% | – | 0/0% | – | 57.5 | 91.1
CCn1c(-c2ccc(-c3ccccc3)o2)nc2ccccc21 [VPC-18-36, 1-Ethyl-2-(5-phenylfuran-2-yl)-1H-benzo[d]imidazole] | 15% | 22 | 2% | 13 | 57.5 | 93.4
c1ccc2c(c1)CCC2c1cnn(-c2nc3ccccc3s2)c1 (centres unmarked) [VPC-7-43] | 20% | 27 | 5% | 14 | 2 | 41
c1ccc(-c2nc(-c3cc4ccccc4o3)cs2)cc1 [VPC-18-33, 4-(Benzofuran-2-yl)-2-phenylthiazole] | 30% | 36 | 1% | 10 | 22.4 | 57.2
O=[N+]([O-])c1ccc2nc(-c3csc(-c4ccco4)n3)[nH]c2c1 [VPC-18-48, 2-(Furan-2-yl)-4-(6-nitro-1H-benzo[d]imidazol-2-yl)thiazole] | 9% | 17 | 2% | 10 | -6.56 | 91.2
O=[N+]([O-])c1ccc2nc(-c3ccc(-c4ccccc4F)o3)[nH]c2c1 [VPC-18-32, 2-(5-(2-Fluorophenyl)furan-2-yl)-6-nitro-1H-benzo[d]imidazole] | 20% | 26 | 4% | 12 | 83.7 | 95.5
Cc1c(-c2csc(-c3ccco3)n2)oc2ccccc12 [VPC-18-53, 2-(Furan-2-yl)-4-(3-methylbenzofuran-2-yl)thiazole] | 39% | 42 | 2% | 2 | 78.1 | 84.5
Cn1c(-c2ccc(-c3ccccc3)o2)nc2ccc(Cl)cc21 [VPC-18-42, 6-Chloro-1-methyl-2-(5-phenylfuran-2-yl)-1H-benzo[d]imidazole] | 15% | 23 | 1% | 11 | 77.3 | 76.8
c1ccc2c(c1)CCC2c1ccc(-c2nc3ccccc3s2)o1 (centres unmarked) [VPC-7-44] | 62% | > 60 | 44% | 52 | 83 | 93
COc1ccccc1-c1ccc(-c2nc3ccccc3n2C)o1 [VPC-18-35, 2-(5-(2-Methoxyphenyl)furan-2-yl)-1-methyl-1H-benzo[d]imidazole] | 4% | 13 | 0% | 5 | 51.6 | 95.8
Clc1ccc2nc(-c3csc(-c4ccco4)n3)oc2c1 [VPC-18-107] | – | – | 7% | 8 | 36.9 | 66.9
FC(F)(F)c1ccc2cc(-c3csc(-c4cc[nH]c4)n3)oc2c1 [VPC-18-111] | – | – | 38% | 48 | 96.2 | 98.6
Clc1ccc2cc(-c3coc(-c4ccco4)n3)oc2c1 [VPC-18-121] | – | – | 0% | 8 | 92.7 | 93.5
N#Cc1ccc2cc(-c3csc(-c4ccco4)n3)oc2c1 [VPC-18-80] | – | – | 0% | – | 42 | 44
Clc1ccc2cc(-c3csc(-c4ccn[nH]4)n3)oc2c1 [VPC-18-96, 4-(6-chlorobenzofuran-2-yl)-2-(1H-pyrazol-5-yl)thiazole] | – | – | 35% | 45 | 83.5 | 92.5
COc1ccc2cc(-c3csc(-c4ccco4)n3)oc2c1 [VPC-18-118] | – | – | 1% | 9 | 74 | 92.5
